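Grown in 96-well plates, cells were treated for 48 hours with each compound at five concentrations. Insufficient inhibition: endpoint recorded as highest concentration tested. GI50 = concentration required for 50% inhibition of growth.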 The source made the active and inactive calls. Rule as the data show it: active = GI50 up to about 1.1 µM and inactive = higher.
What was measured:
Experiment in all cases: DTP human tumour cell line panel, 48 h
[1] = tested on: A549
[2] = tested on: ACHN
[3] = tested on: COLO 205
[4] = tested on: DMS-114
[5] = tested on: DMS-273
[6] = tested on: EKVX
[7] = tested on: HCC 2998
[8] = tested on: HCT-116
[9] = tested on: HCT-15
[10] = tested on: HL-60
[11] = tested on: HOP-62
[12] = tested on: HOP-92
[13] = tested on: HT-29
[14] = tested on: IGROV-1
[15] = tested on: KM-20L2
[16] = tested on: LOX IMVI
[17] = tested on: LXFL 529
[18] = tested on: M14
[19] = tested on: M19-MEL
[20] = tested on: MOLT-4
[21] = tested on: NCI-H226
[22] = tested on: NCI-H23
[23] = tested on: NCI-H460
[24] = tested on: OVCAR-4
[25] = tested on: OVCAR-5
[26] = tested on: OVCAR-8
[27] = tested on: RPMI-8226
[28] = tested on: RXF 393
[29] = tested on: SF-268
[30] = tested on: SF-539
[31] = tested on: SK-MEL-28
[32] = tested on: SK-MEL-2
[33] = tested on: SK-MEL-5
[34] = tested on: SN12C
[35] = tested on: SNB-19
[36] = tested on: SNB-78
[37] = tested on: SR
[38] = tested on: SW-620
[39] = tested on: TK-10
[40] = tested on: UACC-257
[41] = tested on: UACC-62
[42] = tested on: UO-31
[43] = tested on: XF498
[44] = tested on: K562
[45] = tested on: KM12
[46] = tested on: NCI-H522
[47] = tested on: OVCAR-3
[48] = tested on: SF-295
[49] = tested on: SK-OV-3
[50] = tested on: SNB-75
[51] = tested on: U-251
[52] = tested on: 786-0
[53] = tested on: A498
[54] = tested on: BT-549
[55] = tested on: CAKI-1
[56] = tested on: CCRF-CEM
[57] = tested on: DLD-1
[58] = tested on: DU-145
[59] = tested on: Hs-578T
[60] = tested on: MCF7
[61] = tested on: MDA-MB-231
[62] = tested on: MDA-MB-435
[63] = tested on: MDA-N
[64] = tested on: Malme-3M
[65] = tested on: NCI/ADR-RES
[66] = tested on: PC-3
[67] = tested on: T47D

For `CCCCNC(=O)N/C=C1\C(=O)Oc2ccccc2C1=O`, the GI50 [1] was 80.9 µM (inactive), the GI50 [2] was 24.5 µM (inactive) and the GI50 [3] was > 100 µM (inactive). For the same molecule, the GI50 [4] was 28.3 µM (inactive), the GI50 [5] was 76.6 µM (inactive) and the GI50 [6] was > 100 µM (inactive). For the same molecule, the GI50 [7] was > 100 µM (inactive), the GI50 [8] was 43.9 µM (inactive) and the GI50 [9] was 28.8 µM. For the same molecule, the GI50 [10] was 22.1 µM (inactive), the GI50 [11] was 47.5 µM (inactive) and the GI50 [12] was 24.9 µM (inactive). For the same molecule, the GI50 [13] was > 100 µM (inactive), the GI50 [14] was 37.1 µM (inactive) and the GI50 [15] was > 100 µM (inactive). For the same molecule, the GI50 [16] was 70.1 µM (inactive), the GI50 [17] was 47.8 µM (inactive) and the GI50 [18] was 41.7 µM (inactive). For the same molecule, the GI50 [19] was 54.5 µM (inactive), the GI50 [20] was 35.3 µM (inactive) and the GI50 [21] was 32.7 µM (inactive). For the same molecule, the GI50 [22] was 54.6 µM (inactive), the GI50 [23] was > 100 µM (inactive) and the GI50 [24] was 57.3 µM (inactive). For the same molecule, the GI50 [25] was 68.5 µM (inactive), the GI50 [26] was 74.1 µM (inactive) and the GI50 [27] was 55.7 µM (inactive). For the same molecule, the GI50 [28] was 15 µM (inactive), the GI50 [29] was 34.4 µM (inactive) and the GI50 [30] was 39.4 µM (inactive). For the same molecule, the GI50 [31] was 30.1 µM (inactive), the GI50 [32] was 20.1 µM (inactive) and the GI50 [33] was > 100 µM (inactive). For the same molecule, the GI50 [34] was 29.5 µM (inactive), the GI50 [35] was 26.5 µM (inactive) and the GI50 [36] was 19.9 µM (inactive). For the same molecule, the GI50 [37] was 57.5 µM (inactive), the GI50 [38] was 58.7 µM (inactive) and the GI50 [39] was 79.4 µM (inactive). For the same molecule, the GI50 [40] was 55.7 µM (inactive), the GI50 [41] was 33.4 µM (inactive) and the GI50 [42] was 11.8 µM (inactive). For the same molecule, the GI50 [43] was 14.1 µM (inactive).
With `Cc1cnc2cc(Cl)ccc2c1NCCN(CC(C)C)CC(C)C` the GI50 [2] was > 100 µM (inactive), the GI50 [3] was > 100 µM (inactive) and the GI50 [4] was 8.18 µM (inactive). For the same molecule, the GI50 [7] was > 100 µM (inactive), the GI50 [8] was 78.7 µM (inactive) and the GI50 [10] was 9.75 µM (inactive). The GI50 [11] was 67.6 µM (inactive), the GI50 [12] was 11.1 µM (inactive) and the GI50 [13] was 8.3 µM (inactive). The GI50 [14] was > 100 µM (inactive), the GI50 [44] was 9.53 µM (inactive) and the GI50 [15] was 17.5 µM (inactive). For the same molecule, the GI50 [45] was > 100 µM (inactive), the GI50 [17] was 59.8 µM (inactive) and the GI50 [18] was > 100 µM (inactive). For the same molecule, the GI50 [19] was > 100 µM (inactive), the GI50 [20] was > 100 µM (inactive) and the GI50 [22] was 95.3 µM (inactive). For the same molecule, the GI50 [23] was > 100 µM (inactive), the GI50 [46] was 13.1 µM (inactive) and the GI50 [47] was 13.3 µM (inactive). For the same molecule, the GI50 [24] was > 100 µM (inactive), the GI50 [25] was > 100 µM (inactive) and the GI50 [27] was 13.6 µM (inactive). The GI50 [29] was > 100 µM (inactive), the GI50 [48] was 32.7 µM (inactive) and the GI50 [30] was > 100 µM (inactive). For the same molecule, the GI50 [31] was > 100 µM (inactive), the GI50 [32] was > 100 µM (inactive) and the GI50 [49] was > 100 µM (inactive). For the same molecule, the GI50 [35] was > 10 µM (inactive), the GI50 [50] was > 100 µM (inactive) and the GI50 [36] was 41.1 µM (inactive). The GI50 [37] was > 100 µM (inactive), the GI50 [51] was > 100 µM (inactive) and the GI50 [40] was > 100 µM (inactive). The GI50 [41] was > 100 µM (inactive) and the GI50 [42] was 9.23 µM (inactive).
For `CC(C)n1c2c([n+](C)c1/C=C/c1ccccc1)C(=O)c1ccccc1C2=O`, the GI50 [52] was 0.259 µM (active), the GI50 [53] was 0.611 µM (active) and the GI50 [1] was 0.587 µM (active). The GI50 [2] was 2 µM (inactive), the GI50 [54] was 0.241 µM (active) and the GI50 [55] was 2.79 µM (inactive). For the same molecule, the GI50 [56] was 0.0743 µM (active), the GI50 [3] was < 0.01 µM (active) and the GI50 [57] was 0.426 µM (active). The GI50 [4] was < 0.0148 µM (active), the GI50 [5] was 0.0348 µM (active) and the GI50 [58] was 0.34 µM (active). The GI50 [6] was 0.206 µM (active), the GI50 [7] was 0.272 µM (active) and the GI50 [8] was 0.0748 µM (active). The GI50 [9] was 3.67 µM, the GI50 [10] was 0.02 µM (active) and the GI50 [11] was 0.398 µM (active). The GI50 [12] was 0.309 µM (active), the GI50 [13] was 0.0875 µM (active) and the GI50 [59] was 1.91 µM (inactive). For the same molecule, the GI50 [14] was 0.0157 µM (active), the GI50 [44] was 0.0592 µM (active) and the GI50 [15] was 0.0955 µM (active). The GI50 [45] was 0.132 µM (active), the GI50 [16] was 0.0721 µM (active) and the GI50 [17] was 0.0861 µM (active). The GI50 [18] was 0.318 µM (active), the GI50 [19] was 0.125 µM (active) and the GI50 [60] was 0.0516 µM (active). The GI50 [61] was 0.166 µM (active), the GI50 [62] was 0.237 µM (active) and the GI50 [63] was 0.299 µM (active). For the same molecule, the GI50 [20] was 0.0504 µM (active), the GI50 [64] was 0.107 µM (active) and the GI50 [21] was 0.791 µM (active). For the same molecule, the GI50 [22] was 0.0908 µM (active), the GI50 [23] was 0.36 µM (active) and the GI50 [46] was 0.0201 µM (active). The GI50 [65] was 48.6 µM (inactive), the GI50 [47] was < 0.01 µM (active) and the GI50 [24] was 0.0278 µM (active). For the same molecule, the GI50 [25] was 0.501 µM (active), the GI50 [26] was 0.07 µM (active) and the GI50 [66] was 0.149 µM (active). The GI50 [27] was 0.0575 µM (active), the GI50 [28] was 0.322 µM (active) and the GI50 [29] was 0.0703 µM (active). For the same molecule, the GI50 [48] was 0.916 µM (active), the GI50 [30] was 0.0334 µM (active) and the GI50 [31] was 0.312 µM (active). The GI50 [32] was 0.116 µM (active), the GI50 [33] was 0.07 µM (active) and the GI50 [49] was 0.299 µM (active). The GI50 [34] was 0.0495 µM (active), the GI50 [35] was 0.223 µM (active) and the GI50 [50] was 0.419 µM (active). The GI50 [36] was 0.0389 µM (active), the GI50 [37] was 0.257 µM (active) and the GI50 [38] was 0.0501 µM (active). For the same molecule, the GI50 [67] was 0.0397 µM (active), the GI50 [39] was 0.538 µM (active) and the GI50 [51] was 0.147 µM (active). The GI50 [40] was 0.0398 µM (active), the GI50 [41] was 0.198 µM (active) and the GI50 [42] was 3.55 µM (inactive).

From ChEMBL document CHEMBL1201862, “PubChem BioAssay data set” (2004)
